{"source": "patent US20160220567A1", "about": "“COMPOSITION FOR TREATING OR PREVENTING BONE DISEASES, COMPRISING HALOFUGINONE AS ACTIVE INGREDIENT” (THE CATHOLIC UNIVERSITY OF KOREA INDUSTRY-ACADEMIC …, priority 2013, published 2016)", "key": {"[1]": {"tested_on": "murine bone marrow cells differentiating into osteoclasts", "experiment": "Murine bone marrow cell osteoclast differentiation (M-CSF, RANKL): TRAP staining and real-time PCR", "format": "cell-based, mouse", "conditions": "5 days", "method": "For test animals, 6 to 7-week old male DBA-1 mice were used. […] Bone marrow cells were isolated from the tibia and the femur of mice, and the RBC of the isolated bone marrow cells were lysed, inoculated into a 24-well plate after diluting in 10% Minimum α-MEM to a concentration of 2 ? 10^5 cells/well, and cultured for 12 hours. The adherent cells were removed, stimulated with a macrophage-colony stimulating factor (M-CSF) and cultured for 3 days, and treated with M-CSF (10 ng/mL), receptor activator of NF-κB ligand (RANKL; 50 ng/mL), and halofuginone and cultured for 2 days. The medium was replaced in 2 days, retreated in the same manner, and cultured for 2 days.\nMurine bone marrow cells were differentiated for 5 days by stimulating with M-CSF, RANKL, and halofuginone and subjected to TRAP staining according to the method described in Example <1-8> to confirm the number of TRAP positive cells. Additionally, the expression of c-Fos, JunB, and Jpd2 in the bone marrow cells were confirmed by real-time PCR according to the method described in Example <1-6>."}, "[2]": {"tested_on": "IL-17 production of T cells via IDO in dendritic cells", "experiment": "IL-17 ELISA in co-culture of halofuginone-stimulated dendritic cells and T cells", "format": "cell-based", "method": "The dendritic cells cultured for 2 days after stimulating with halofuginone and the T cells cultured for 2 days under the condition of differentiating Th17 cells of <2-2> were co-cultured for 2 additional days, and IL-17 was measured using the supernatant by ELISA. That is, the supernatants of the cell cultures were collected and the amount of IL-17 was measured via sandwich ELISA method. To this end, first, the 96-well plate was treated with monoclonal anti-IL-17 ([…]) and reacted at 4° C. overnight, and upon reaction, non-specific binding was blocked using a blocking solution (1% BSA/PBST). Then, IL-17 in a half amount was diluted continuously and used as standards, and the supernatants of cell cultures were reacted at room temperature for 2 hours. Then, the biotinylated anti-IL-17 were reacted at room temperature for 2 hours, washed 4 times, and added with ExtraAvidin-alkaline phosphatase conjugate after dilution, and reacted at room temperature for 2 hours. Subsequently, PNPP/DEA solution was added thereto to develop color and the absorbance was measured at 405 nm."}}, "data": [{"smiles": "O=C(C[C@H]1NCCC[C@@H]1O)Cn1cnc2cc(Br)c(Cl)cc2c1=O", "note": "(racemic) [halofuginone]", "values": [{"measurement": "mRNA expression of Jpd2", "setting": "[1]; FIG. 5C", "result": "inhibits"}, {"measurement": "mRNA expression of JunB", "setting": "[1]; FIG. 5C", "result": "inhibits"}, {"measurement": "mRNA expression of c-Fos", "setting": "[1]; FIG. 5C", "result": "inhibits"}, {"measurement": "expression of factors associated with the differentiation of osteoclasts", "setting": "[1]; TRAP staining, FIG. 5A", "result": "inhibits"}, {"measurement": "IDO expression in dendritic cells", "setting": "[2]; FIG. 3D legend", "result": "increase"}, {"measurement": "production of IL-17", "setting": "[2]; T cells co-cultured with dendritic cells co-stimulated with 1-MT (an IDO inhibitor) and halofuginone", "result": "no decrease"}, {"measurement": "production of IL-17", "setting": "[2]; T cells co-cultured with dendritic cells stimulated with halofuginone, FIG. 3D", "result": "decrease"}]}]}
